Earlier results as cited in patent publication US20110313040A1, “ORGANIC NUTRIENT SALTS, METHODS OF PREPARATION AND USES” (BELLUS HEALTH INC., priority 2008, published 2011).

Details: in vivo

NCCCS(=O)(=O)[O-].[Na+] [sodium salt of homotaurine]
stomach and gastrointestinal tolerance: caused stomach and gastrointestinal intolerance (e.g. nausea, vomiting)
